What was measured:
[1] = target: Cyclin-dependent kinase 4/cyclin D1 (Homo sapiens, UniProt P11802); experiment: Inhibition of CDK4/Cyclin-D1 (unknown origin) using histone-H1 as substrate after 90 mins by ADP-Glo assay; assay type: protein-complex assay
CDK1/Cyclin A = CDK1/Cyclin A (Homo sapiens, UniProt P06493); experiment: Inhibition of CDK1/Cyclin-A2 (unknown origin) using histone-H1 as substrate after 90 mins by ADP-Glo assay; assay type: protein-complex assay
Homo sapiens = organism: Homo sapiens; experiment: Selectivity ratio of IC50 for CDK1/Cyclin-A2 (unknown origin) to IC50 for CDK6/Cyclin-D3 (unknown origin)
[2] = Clearance in Sprague-Dawley rat at 2 mg/kg, iv administered as single dose by LC-MS/MS analysis; assay type: ADME, organism-based; details: in vivo
[3] = Volume of distribution at steady state in Sprague-Dawley rat at 2 mg/kg, iv administered as single dose by LC-MS/MS analysis; assay type: ADME, organism-based; details: in vivo, read-out: Vdss
[4] = AUC (0 to 24 hrs) in Sprague-Dawley rat at 2 mg/kg, iv administered as single dose by LC-MS/MS analysis; assay type: ADME, organism-based; set-up: dose 2 mg/kg, time < 24 hr, route intravenous; details: in vivo
[5] = AUC (0 to infinity) in Sprague-Dawley rat at 2 mg/kg, iv administered as single dose by LC-MS/MS analysis; assay type: ADME, organism-based; set-up: dose 2 mg/kg, route intravenous, time infinity; details: Sprague-Dawley, in vivo
[6] = Half life in Sprague-Dawley rat at 2 mg/kg, iv administered as single dose by LC-MS/MS analysis; assay type: ADME, organism-based; details: in vivo
CDK6/cyclin D3 = CDK6/cyclin D3 (Homo sapiens, UniProt Q00534); experiment: Inhibition of CDK6/Cyclin-D3 (unknown origin) using histoneH1 as substrate after 90 mins by ADP-Glo assay; assay type: protein-complex assay
[7] = Cmax in Sprague-Dawley rat at 5 mg/kg, po administered as single dose by LC-MS/MS analysis; assay type: ADME, organism-based; set-up: dose 5 mg/kg, route oral; details: in vivo
[8] = AUC (0 to 24 hrs) in Sprague-Dawley rat at 5 mg/kg, po administered as single dose by LC-MS/MS analysis; assay type: ADME, organism-based; set-up: time < 24 hr, dose 5 mg/kg, route oral; details: in vivo
[9] = Oral bioavailability in Sprague-Dawley rat at 5 mg/kg administered as single dose by LC-MS/MS analysis; assay type: ADME, organism-based; details: Sprague-Dawley, in vivo
[10] = AUC (0 to infinity) in Sprague-Dawley rat at 5 mg/kg, po administered as single dose by LC-MS/MS analysis; assay type: ADME, organism-based; set-up: dose 5 mg/kg, route oral, time infinity; details: Sprague-Dawley, in vivo
[11] = Half life in Sprague-Dawley rat at 5 mg/kg, po administered as single dose by LC-MS/MS analysis; assay type: ADME, organism-based; details: in vivo

Sequence of CDK1/Cyclin A (P06493 whole entry): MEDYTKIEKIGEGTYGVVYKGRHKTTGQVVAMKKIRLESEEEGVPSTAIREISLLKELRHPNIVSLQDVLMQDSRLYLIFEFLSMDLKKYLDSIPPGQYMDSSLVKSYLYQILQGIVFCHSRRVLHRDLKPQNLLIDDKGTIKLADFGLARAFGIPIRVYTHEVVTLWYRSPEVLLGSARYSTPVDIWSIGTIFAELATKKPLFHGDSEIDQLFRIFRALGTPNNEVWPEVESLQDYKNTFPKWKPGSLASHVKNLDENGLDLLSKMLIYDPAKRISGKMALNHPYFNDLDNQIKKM
Sequence of CDK1/Cyclin A (P20248 whole entry, further chain): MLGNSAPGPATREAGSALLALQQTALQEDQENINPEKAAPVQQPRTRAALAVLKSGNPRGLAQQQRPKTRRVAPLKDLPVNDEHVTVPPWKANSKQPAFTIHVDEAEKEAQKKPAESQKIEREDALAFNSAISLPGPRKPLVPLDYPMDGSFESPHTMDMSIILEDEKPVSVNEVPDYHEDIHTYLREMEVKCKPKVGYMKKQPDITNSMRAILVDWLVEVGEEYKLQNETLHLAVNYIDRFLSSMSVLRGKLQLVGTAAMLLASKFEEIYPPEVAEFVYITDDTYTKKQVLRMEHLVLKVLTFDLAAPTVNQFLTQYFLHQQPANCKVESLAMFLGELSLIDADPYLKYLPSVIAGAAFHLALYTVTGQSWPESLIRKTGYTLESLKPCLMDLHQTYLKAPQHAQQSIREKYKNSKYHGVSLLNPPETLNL
Sequence of CDK6/cyclin D3 (P30281 whole entry): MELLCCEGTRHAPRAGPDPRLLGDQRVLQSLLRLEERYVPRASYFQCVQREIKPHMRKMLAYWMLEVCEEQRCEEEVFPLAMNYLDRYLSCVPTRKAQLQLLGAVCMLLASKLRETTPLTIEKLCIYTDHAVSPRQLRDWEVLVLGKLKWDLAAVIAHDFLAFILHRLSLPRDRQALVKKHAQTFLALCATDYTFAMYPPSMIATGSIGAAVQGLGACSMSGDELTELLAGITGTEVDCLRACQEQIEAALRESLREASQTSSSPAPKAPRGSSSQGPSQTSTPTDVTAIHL
Sequence of CDK6/cyclin D3 (Q00534 whole entry): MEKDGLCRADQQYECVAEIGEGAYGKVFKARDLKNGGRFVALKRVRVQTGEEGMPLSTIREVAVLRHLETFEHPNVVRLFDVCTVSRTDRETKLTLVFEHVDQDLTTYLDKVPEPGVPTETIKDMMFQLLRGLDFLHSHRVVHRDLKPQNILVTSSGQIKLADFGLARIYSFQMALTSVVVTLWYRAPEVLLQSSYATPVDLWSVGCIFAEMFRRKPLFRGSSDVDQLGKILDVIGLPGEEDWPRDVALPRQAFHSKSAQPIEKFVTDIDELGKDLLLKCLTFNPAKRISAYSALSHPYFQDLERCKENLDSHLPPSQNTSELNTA
Sequence of Cyclin-dependent kinase 4/cyclin D1 (P11802 whole entry): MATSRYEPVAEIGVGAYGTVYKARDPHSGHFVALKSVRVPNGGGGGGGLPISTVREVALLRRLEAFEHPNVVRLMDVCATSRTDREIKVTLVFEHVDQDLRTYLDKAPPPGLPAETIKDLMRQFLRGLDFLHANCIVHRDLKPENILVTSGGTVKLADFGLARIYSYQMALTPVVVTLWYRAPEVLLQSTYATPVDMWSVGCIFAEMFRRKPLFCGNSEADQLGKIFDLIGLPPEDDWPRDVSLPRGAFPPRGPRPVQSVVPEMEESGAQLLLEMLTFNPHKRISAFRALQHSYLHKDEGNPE
Sequence of Cyclin-dependent kinase 4/cyclin D1 (P24385 whole entry, further chain): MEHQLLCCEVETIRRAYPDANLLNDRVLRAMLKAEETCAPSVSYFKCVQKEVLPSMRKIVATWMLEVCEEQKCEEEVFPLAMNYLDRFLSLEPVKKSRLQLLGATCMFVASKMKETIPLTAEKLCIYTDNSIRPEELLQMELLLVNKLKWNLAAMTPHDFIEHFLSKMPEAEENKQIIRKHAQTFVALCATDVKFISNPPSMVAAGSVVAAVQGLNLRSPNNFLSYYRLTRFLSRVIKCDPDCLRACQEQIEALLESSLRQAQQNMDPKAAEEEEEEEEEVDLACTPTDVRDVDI

| IC50 [1] [nM] | IC50 (CDK1/Cyclin A) [nM] | Ratio IC50 (Homo sapiens) | clearance [2] [mL/min/kg] | Vd [3] [L/kg] | AUC(0-t) at 24 h [4] [ng·h/mL] | AUC(0-inf) [5] [ng·h/mL] | half-life [6] [h] | IC50 (CDK6/cyclin D3) [nM] | Cmax [7] [ng/mL] | AUC(0-t) at 24 h [8] [ng·h/mL] | bioavailability [9] [%] | AUC(0-inf) [10] [ng·h/mL] | half-life [11] [h] | SMILES |
| --- | --- | --- | --- | --- | --- | --- | --- | --- | --- | --- | --- | --- | --- | --- |
| 10 | 96 | 11 | 167 | 17.9 | 204 | 213 | 1.4 | – | – | – | – | – | – | CCC1(CC)C(C)=Nc2c(F)cc(-c3nc(Nc4ccc(N5CCN(C)CC5)cn4)ncc3F)cc21 |
| 44 | 84 | 28 | 125 | 28.1 | 256 | 270 | 3 | 3 | 18 | 145 | 23 | – | – | CCC1(C)C(C)=Nc2c(F)cc(-c3nc(Nc4ccc(N5CCNCC5)cn4)ncc3F)cc21 (stereo not given) |
| 6 | – | 268 | 10.8 | 11.6 | 2250 | 3190 | 13.2 | 4 | 143 | 1980 | 35 | – | – | CCN1CCC(c2ccc(Nc3ncc(F)c(-c4cc(F)c5c(c4)C4(CCCC4)C(C)=N5)n3)nc2)CC1 |
| 16 | 216 | 18 | – | – | – | – | – | 12 | – | – | – | – | – | CCN1CCC(c2ccc(Nc3ncc(F)c(-c4cc(F)c5c(c4)C(C)(CC)C(C)=N5)n3)nc2)CC1 (stereo not given) |
| 8 | – | 818 | 24.6 | 15.6 | 1200 | 1370 | 8.6 | 0.4 | 62.1 | 867 | 29 | – | – | CC1=Nc2c(F)cc(-c3nc(Nc4ccc(C5CCNCC5)cn4)ncc3F)cc2C12CCCC2 |
| 4 | – | 58 | 28.3 | 11 | 1140 | 1180 | 4.8 | 4 | 80.3 | 980 | 34 | – | – | CC1=Nc2ccc(-c3nc(Nc4ccc(N5CCNCC5)cn4)ncc3F)cc2C12CCCC2 |
| 6 | 153 | 153 | 69.2 | 6.4 | 496 | 504 | 2.1 | 1 | – | – | – | – | – | CCC1(C)C(C)=Nc2c(F)cc(-c3nc(Nc4ccc(N5CCN(C)CC5)cn4)ncc3F)cc21 (stereo not given) |
| 3 | – | 27 | 125 | 28.1 | 256 | 270 | 3 | 3 | 13.7 | 106 | 16 | – | – | CCC1(CC)C(C)=Nc2c(F)cc(-c3nc(Nc4ccc(N5CCNCC5)cn4)ncc3F)cc21 |
| 35 | 112 | 22 | – | – | – | – | – | 5 | – | – | – | – | – | CCC1(C)C(C)=Nc2ccc(-c3nc(Nc4ccc(N5CCN(C)CC5)cn4)ncc3F)cc21 (stereo not given) |
| 28 | 142 | 14 | – | – | – | – | – | – | – | – | – | – | – | CCC1(C)C(C)=Nc2ccc(-c3nc(Nc4ccc(N5CCNCC5)cn4)ncc3F)cc21 (stereo not given) |
| 18 | 54 | 6 | – | – | – | – | – | 9 | – | – | – | – | – | CCC1(C)C(C)=Nc2ccc(-c3nc(Nc4ccc(C5CCN(C)CC5)cn4)ncc3F)cc21 (stereo not given) |
| 17 | – | 55 | – | – | – | – | – | 6 | – | – | – | – | – | CC1=Nc2c(F)cc(-c3nc(Nc4ccc(N5CCN(CCO)CC5)cn4)ncc3F)cc2C12CCCC2 |
| 4 | – | 7 | – | – | – | – | – | 4 | – | – | – | – | – | CC1=Nc2ccc(-c3nc(Nc4ccc(C5CCNCC5)cn4)ncc3F)cc2C12CCCC2 |
| 15 | – | 46 | 72.9 | 15.7 | 442 | 458 | 4.8 | 9 | 28.9 | 269 | 24 | 382 | – | CC1=Nc2ccc(-c3nc(Nc4ccc(N5CCN(C)CC5)cn4)ncc3F)cc2C12CCCC2 |
| – | 2220 | 52 | – | – | – | – | – | – | – | – | – | – | – | CC1=Nc2c(F)cc(-c3nc(Nc4ccc(N5CCNCC5)cn4)ncc3F)cc2C1(C)C |
| 42 | 125 | 6 | – | – | – | – | – | 19 | – | – | – | – | – | CCN1CCC(c2ccc(Nc3ncc(F)c(-c4ccc5c(c4)C(C)(CC)C(C)=N5)n3)nc2)CC1 (stereo not given) |
| – | 65 | 1 | – | – | – | – | – | – | – | – | – | – | – | CCN1CCN(c2ccc(Nc3ncc(F)c(-c4cc(F)c5c(c4)C(C)(CC)C(C)=N5)n3)nc2)CC1 (stereo not given) |
| 8 | – | 12 | – | – | – | – | – | 4 | – | – | – | – | – | CC1=Nc2ccc(-c3nc(Nc4ccc(C5CCN(C)CC5)cn4)ncc3F)cc2C12CCCC2 |
| 16 | 131 | 14 | 77.8 | 40.1 | 404 | 447 | 7 | 9 | 22.3 | 287 | 28 | – | – | CCC1(C)C(C)=Nc2c(F)cc(-c3nc(Nc4ccc(C5CCN(C)CC5)cn4)ncc3F)cc21 (stereo not given) |
| 13 | – | 38 | – | – | – | – | – | 7 | – | – | – | – | – | CCN1CCN(Cc2ccc(Nc3ncc(F)c(-c4ccc5c(c4)C4(CCCC4)C(C)=N5)n3)nc2)CC1 |
| – | 110 | 18 | – | – | – | – | – | 6 | – | – | – | – | – | CCC1(C)C(C)=Nc2c(F)cc(-c3nc(Nc4ccc(C5CCNCC5)cn4)ncc3F)cc21 (stereo not given) |
| – | – | 5 | – | – | – | – | – | – | – | – | – | – | – | CCN1CCC(c2ccc(Nc3ncc(F)c(-c4ccc5c(c4)C4(CCCC4)C(C)=N5)n3)nc2)CC1 |
| 78 | 1060 | 106 | – | – | – | – | – | 10 | – | – | – | – | – | CC1=Nc2c(F)cc(-c3nc(Nc4ccc(N5CCN(C(C)C)CC5)cn4)ncc3F)cc2C12CCCC2 |
| – | 101 | 25 | – | – | – | – | – | 4 | – | – | – | – | – | CCN1CCN(c2ccc(Nc3ncc(F)c(-c4ccc5c(c4)C(C)(CC)C(C)=N5)n3)nc2)CC1 (stereo not given) |
| – | 166 | 10 | – | – | – | – | – | 16 | – | – | – | – | – | CCC1(C)C(C)=Nc2ccc(-c3nc(Nc4ccc(C5CCNCC5)cn4)ncc3F)cc21 (stereo not given) |
| – | – | 16 | 42.3 | 8.5 | 761 | 796 | 3.8 | – | 37 | 386 | 21 | 420 | 5.1 | CC1=Nc2c(F)cc(-c3nc(Nc4ccc(N5CCN(C)CC5)cn4)ncc3F)cc2C12CCCC2 |
| – | – | 352 | – | – | – | – | – | 0.5 | – | – | – | – | – | CC1=Nc2c(F)cc(-c3nc(Nc4ccc(C5CCN(CCO)CC5)cn4)ncc3F)cc2C12CCCC2 |
| – | – | 9 | – | – | – | – | – | – | – | – | – | – | – | CCN1CCN(Cc2ccc(Nc3ncc(F)c(-c4cc(F)c5c(c4)C(CC)(CC)C(C)=N5)n3)nc2)CC1 |

Reference: ChEMBL document CHEMBL4251601 (Eur J Med Chem, 2018)
